Test results from US20240270821A1, “GIP/GLP1/GCG TRI-RECEPTOR AGONISTS AND USES THEREOF” (priority 2023, published 2024).
Starred links: 1 amine or outer side, 2 acyl side, 3 side chain; linkers in the order of their positions; H or OH if unused. Non-standard residues stand in square brackets, D forms with d. Groups on a side chain read outwards from the residue. No end group written: not given here. *: point of attachment. C20 diacid = O=C(O)CCCCCCCCCCCCCCCCCCC(=O)*; C18 diacid = O=C(O)CCCCCCCCCCCCCCCCC(=O)*; γGlu = O=C(O)[C@H](CCC(=O)[*:2])N[*:1]; αMeL = CC(C)C[C@](C)(N)C(=O)O; Orn = NCCC[C@H](N)C(=O)O; Dab = NCC[C@H](N)C(=O)O; Dap = NC[C@H](N)C(=O)O; AEEA = NCCOCCOCC(=O)O; Aib = CC(C)(N)C(=O)O

T1: hGIPR (Homo sapiens, UniProt P48546)
T1 sequence (P48546 22-466): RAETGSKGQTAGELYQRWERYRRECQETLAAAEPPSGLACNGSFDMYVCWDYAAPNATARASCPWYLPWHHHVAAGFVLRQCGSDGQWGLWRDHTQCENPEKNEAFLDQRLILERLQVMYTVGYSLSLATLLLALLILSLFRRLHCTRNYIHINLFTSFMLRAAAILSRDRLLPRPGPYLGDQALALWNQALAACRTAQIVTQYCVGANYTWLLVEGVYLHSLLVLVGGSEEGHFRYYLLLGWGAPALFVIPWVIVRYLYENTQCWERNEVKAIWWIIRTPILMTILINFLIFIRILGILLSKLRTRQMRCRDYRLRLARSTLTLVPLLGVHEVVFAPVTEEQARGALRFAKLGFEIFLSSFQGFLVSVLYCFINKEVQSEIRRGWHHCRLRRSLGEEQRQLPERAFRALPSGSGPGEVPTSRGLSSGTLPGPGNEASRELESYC

T2: human GIP receptor (human) (UniProt P48546)
T2 sequence (looked up): T1 sequence (P48546 22-466)

B1: Example 712 (peptide)
chain: YXQGTXTSDXXIXLDXKAQXEFIEXLIEGGPSSGAPPPSGSE
modifications: synthetic construct; SITE 2: note = 2-Aminoisobutyric Acid; SITE 6: note = alpha-methyl-2-fluoro-L-phenylalanine; SITE 10: note = 3-(4-Pyridyl)-L-alanine; SITE 11: note = alpha-methyl-L-serine; SITE 13: note = alpha-methyl-leucine; SITE 16: note = L-ornithine; SITE 17: note = Lysine is chemically mo
B2: Example 510 (peptide)
chain: YXQGTXTSDXSILLDKKAQXAFIEYLEEGGPSSGAPPPSGTGE
modifications: synthetic construct; SITE 2: note = 2-Aminoisobutyric Acid; SITE 6: note = alpha-methyl-2-fluoro-L-phenylalanine; SITE 10: note = 3-(4-Pyridyl)-L-alanine; SITE 17: note = Lysine is chemically modified through conjugation of the epsilon-amino group of the Lysine side chain with (gamma-Glu)2-CO-(CH2)1
B3: Example 1026 (peptide)
chain: YXQGTFTSDXSQXLDXKAQXQFIEXLIEGGPSSGEPPPSGSEE
modifications: non-natural residues, lipidated Lys, C-terminal amide; synthetic construct; SITE 2: note = 2-Aminoisobutyric Acid; SITE 10: note = 3-(4-Pyridyl)-L-alanine; SITE 13: note = alpha-methyl-leucine; SITE 16: note = L-ornithine; SITE 17: note = Lysine is chemically modified through conjugation of the epsilon-amino group of the Lysine side chain with (gamma-Gl)

Experiments:
[1] = biological target: T1, hGIPR; test: Functional cAMP activation in the presence of 0.1% casein (no HSA); assay type: cell-based; details: in the presence of 0.1% casein (no HSA); geometric mean; read-out: Relative cAMP EC50, hGIPR;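 for Relative cAMP EC50, hGIPR: intracellular cAMP rise after 30 min at 37 °C read by HTRF against a standard curve, scaled between buffer alone (0%) and top control ligand concentration (100%), four-parameter fit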;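 for Relative cAMP EC50, hGLP-1R: intracellular cAMP rise after 30 min at 37 °C read by HTRF, normalized between buffer only (0%) and maximal control ligand (100%), four-parameter variable-slope fit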
[2] = biological target: T3, hGLP-1R (Homo sapiens, UniProt P43220); test: as above; assay type: cell-based; details: in the presence of 0.1% casein (no HSA); geometric mean; read-out: Relative cAMP EC50, hGLP-1R;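 note: intracellular cAMP rise after 30 min at 37 °C read by HTRF, normalized between buffer only (0%) and maximal control ligand (100%), four-parameter variable-slope fit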
T3 sequence (P43220 24-463): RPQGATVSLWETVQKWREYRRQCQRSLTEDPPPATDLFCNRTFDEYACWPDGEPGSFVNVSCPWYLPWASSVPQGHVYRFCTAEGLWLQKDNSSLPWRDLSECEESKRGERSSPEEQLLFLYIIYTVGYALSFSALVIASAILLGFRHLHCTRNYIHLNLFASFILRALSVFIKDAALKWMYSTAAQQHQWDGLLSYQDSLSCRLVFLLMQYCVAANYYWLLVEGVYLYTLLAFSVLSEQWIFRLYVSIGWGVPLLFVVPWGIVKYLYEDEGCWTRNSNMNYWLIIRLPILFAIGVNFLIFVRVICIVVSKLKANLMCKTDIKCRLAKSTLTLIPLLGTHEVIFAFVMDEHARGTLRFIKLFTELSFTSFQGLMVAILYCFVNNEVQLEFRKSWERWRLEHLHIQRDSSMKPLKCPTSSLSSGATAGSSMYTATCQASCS

[3] = biological target: T1, hGIPR; test: Functional cAMP activity in the presence of 1% HSA; assay type: cell-based; details: read-out: cAMP Rel EC50, hGIPR
[4] = biological target: hGcgR (Homo sapiens, UniProt P47871); test: Functional cAMP activation in the presence of 0.1% casein (no HSA); assay type: cell-based; details: in the presence of 0.1% casein (no HSA); geometric mean; read-out: Relative cAMP EC50, hGcgR;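 note: intracellular cAMP rise after 30 min at 37 °C, read by HTRF against a cAMP standard curve, scaled from buffer only (0%) to maximal control ligand response (100%)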
Chain of hGcgR (P47871 26-477): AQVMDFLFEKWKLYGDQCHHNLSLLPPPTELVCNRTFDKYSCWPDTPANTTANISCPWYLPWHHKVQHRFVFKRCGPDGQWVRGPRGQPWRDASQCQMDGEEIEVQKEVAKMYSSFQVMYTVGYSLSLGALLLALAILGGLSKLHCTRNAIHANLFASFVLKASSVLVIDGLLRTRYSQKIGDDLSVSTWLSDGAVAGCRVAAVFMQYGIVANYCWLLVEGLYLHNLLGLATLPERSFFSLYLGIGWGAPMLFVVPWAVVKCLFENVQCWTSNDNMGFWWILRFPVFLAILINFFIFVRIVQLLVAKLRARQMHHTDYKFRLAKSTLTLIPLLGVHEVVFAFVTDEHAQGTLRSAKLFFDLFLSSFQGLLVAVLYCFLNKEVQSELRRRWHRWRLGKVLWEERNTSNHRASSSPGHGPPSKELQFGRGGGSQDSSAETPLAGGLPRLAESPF

[5] = biological target: T3, hGLP-1R; test: Functional cAMP activity in the presence of 1% HSA; assay type: cell-based; details: read-out: cAMP Rel EC50, hGLP-1R
[6] = biological target: human GLP1-R (Homo sapiens, UniProt P43220); test: GLP1-R internalization assay in HEK293 cells; assay type: cell-based; details: for EC50: HEK293 cells expressing SNAP-GLP-1R, read-out: GLP1R Internalization EC50; for Internalization % TOP: normalized to maximum concentration of GLP-1 (100%)
Chain of human GLP1-R (P43220 24-463): as the sequence (P43220 24-463) above

[7] = biological target: human GcgR (Homo sapiens, UniProt P47871); test: Functional cAMP activity in the presence of 1% HSA; assay type: cell-based; details: read-out: cAMP Rel EC50, hGcgR
Chain of human GcgR (P47871 26-477): as the sequence (P47871 26-477) above

[8] = biological target: human GLP-1R (SNAP-GLP-1R expressed in HEK293 cells) (human) (UniProt P43220); test: cell-based or functional assay
Chain of human GLP-1R (SNAP-GLP-1R expressed in HEK293 cells) (human) (P43220 24-463): as the sequence (P43220 24-463) above

[9] = biological target: T2, human GIP receptor (human); test: cell-based or functional assay
[10] = biological target: T3, hGLP-1R; test: cell-based or functional assay
[11] = biological target: human glucagon receptor (human) (UniProt P47871); test: cell-based or functional assay
Chain of human glucagon receptor (human) (P47871 26-477): as the sequence (P47871 26-477) above

Row | Molecule | EC50 [1] | EC50 [2] | EC50 [3] | EC50 [4] | EC50 [5] | EC50 [6] | Internalization % TOP [6] | EC50 [7] | GLP1R Internalization EC50 [8] | Internalization % TOP [8] | Relative cAMP EC50 [9] | cAMP Rel EC50, nM (1% HSA) [9] | Relative cAMP EC50 [10] | cAMP Rel EC50, nM (1% HSA) [10] | Relative cAMP EC50 [11] | cAMP Rel EC50, nM (1% HSA) [11]
1 | H-Y[Aib]QGTFTSDFSK[αMeL]LDKK([AEEA-γGlu-C20 diacid])AQ[Aib]AFIEYLLAGGPSSGAPPPSGE-NH2 [Example 11] | 0.233 nM | 2.07 nM | 40.8 nM | 12.5 nM | 337 nM | 75.1 nM | 73.8% | 1700 nM | – | – | – | – | – | – | – | –
2 | H-Y[Aib]QGTFTSDFS[Orn][αMeL]LDKK([AEEA-AEEA-γGlu-C18 diacid])AQ[Aib]AFIEYLLE[dA]GPSSGEPPPSGQ-NH2 [Example 157] | 0.183 nM | 3.04 nM | 22.2 nM | 4.16 nM | 496 nM | 60.3 nM | 53.3% | 838 nM | – | – | – | – | – | – | – | –
3 | H-Y[Aib]QGTFTSDFS[Orn][αMeL]LDKK([AEEA-γGlu-C18 diacid])AQ[Aib]AFIEWLLEGGTSSGAPPPSGT-NH2 [Example 177] | 0.213 nM | 2.97 nM | 34.8 nM | 4.22 nM | 483 nM | 79.4 nM | 44% | 758 nM | – | – | – | – | – | – | – | –
4 | Y[Aib]QGTFTSDFS[Dab][αMeL]LDKK([AEEA-γGlu-C18 diacid])AQ[Aib]AFIEYLLEGGPSSGAPPPGGS-NH2 [Example 67] | 0.34 nM | 4.07 nM | 73.3 nM | 3.7 nM | 683 nM | 50.9 nM | 31.1% | 781 nM | – | – | – | – | – | – | – | –
5 | H-Y[Aib]QGTFTSDFSK[αMeL]LDKK([AEEA-γGlu-C20 diacid])AQ[Aib]AFIEYLLAGGPSSGAPPPGGE-NH2 [Example 15] | 0.201 nM | 1.77 nM | 36.3 nM | 11.1 nM | 276 nM | 79 nM | 74.9% | 1980 nM | – | – | – | – | – | – | – | –
6 | H-Y[Aib]QGTFTSDFSK[αMeL]LDKK([AEEA-γGlu-C20 diacid])AQ[Aib]AFIEYLLAGGPSSGAPPPSEG-NH2 [Example 10] | 0.226 nM | 1.85 nM | 43 nM | 7.62 nM | 375 nM | 79.2 nM | 71.9% | 1640 nM | – | – | – | – | – | – | – | –
7 | H-Y[Aib]QGTFTSDFS[Dap][αMeL]LDKK([AEEA-γGlu-C18 diacid])AQ[Aib]AFIEYLLEGGPSSGAPPPGGS-NH2 [Example 68] | 0.46 nM | 3.07 nM | 85.1 nM | 8.55 nM | 612 nM | 95.2 nM | 33.8% | 1160 nM | – | – | – | – | – | – | – | –
8 | H-Y[Aib]QGTFTSDFS[Orn][αMeL]LDKK([γGlu-AEEA-γGlu-C18 diacid])AQ[Aib]AFIEYLLE[Aib]GPSSGAPPPSGT-NH2 [Example 276] | 0.0708 nM | 2.61 nM | 6.28 nM | 2.82 nM | 103 nM | 237 nM | 68.4% | 113 nM | – | – | – | – | – | – | – | –
9 | B1 | – | – | – | – | – | – | – | – | 35.3 nM | 109% | – | – | – | – | – | –
10 | B2 | – | – | – | – | – | – | – | – | 11.8 nM | 113% | – | – | – | – | – | –
11 | B3 | – | – | – | – | – | – | – | – | 47.4 nM | 80% | 0.308 nM | 61.3 nM | 1.77 nM | 299 nM | 6.32 nM | 2080 nM
